Results published in ChEMBL document CHEMBL3817725, “Design, synthesis, and biological evaluation of a novel series of peripheral-selective noradrenaline reuptake inhibitors - Part 3” (Bioorg Med Chem, 2016).

Tests used:
MDR1 = assay: Efflux ratio of apparent permeability from basolateral to apical side over apical to basolateral side in pig LLC-PK1 cells expressing human MDR1 at 10 umol/l after 2 hrs by LC/MS/MS analysis; assay type: ADME, cell-based, Sus scrofa
[1] = Dissociation constant, pKa of the compound; assay type: physicochemical
[2] = target: Sodium-dependent noradrenaline transporter (Homo sapiens, UniProt P23975); assay: Inhibition of human NET expressed in CHO cells assessed as [3H]-Norepinephrine reuptake incubated for 45 mins measured after 30 mins by topcount method; assay type: cell-based
[3] = target: Sodium-dependent serotonin transporter (Homo sapiens, UniProt P31645); assay: Inhibition of human SERT expressed in CHO cells assessed as [3H]-5-hydroxytryptamine reuptake incubated for 20 mins measured after 30 mins by topcount method; assay type: cell-based
[4] = target: Sodium-dependent dopamine transporter (Homo sapiens, UniProt Q01959); assay: Inhibition of human DAT expressed in CHO cells assessed as [3H]-dopamine reuptake incubated for 60 mins measured after 30 mins by topcount method; assay type: cell-based
Homo sapiens [5] = species: Homo sapiens; assay: Selectivity ratio of IC50 for human SERT to IC50 for human NET
Homo sapiens [6] = species: Homo sapiens; assay: Selectivity ratio of IC50 for human DAT to IC50 for human NET
[7] = Cmax in Crl:CD(SD)(IGS) rat at 1 mg/kg, po administered via cassette dosing by LC/MS/MS analysis; assay type: ADME, organism-based; design: dose 1 mg/kg, route oral; conditions: in vivo
[8] = Mean residence time in Crl:CD(SD)(IGS) rat at 1 mg/kg, po administered via cassette dosing by LC/MS/MS analysis; assay type: ADME, organism-based; conditions: in vivo
[9] = AUC in Crl:CD(SD)(IGS) rat at 1 mg/kg, po administered via cassette dosing by LC/MS/MS analysis; assay type: ADME, organism-based; conditions: in vivo
[10] = Oral bioavailability in Crl:CD(SD)(IGS) rat at 1 mg/kg administered via cassette dosing by LC/MS/MS analysis; assay type: ADME, organism-based; conditions: in vivo
Rattus norvegicus [11] = assay: Ex vivo occupancy at NET in Sprague-Dawley rat brain cortex assessed as inhibition of [3H]-nisoxetine binding at 3 mg/kg, iv measured after 1 hr by scintillation counting method; assay type: functional
Rattus norvegicus [12] = assay: Increase in urethral resistance in po dosed rat assessed as increase in leak point pressure after 15 mins to 4 hrs by Evans blue dye leakage based assay; assay type: functional, organism-based; conditions: Urethra

Sequence of Sodium-dependent serotonin transporter (P31645 whole entry): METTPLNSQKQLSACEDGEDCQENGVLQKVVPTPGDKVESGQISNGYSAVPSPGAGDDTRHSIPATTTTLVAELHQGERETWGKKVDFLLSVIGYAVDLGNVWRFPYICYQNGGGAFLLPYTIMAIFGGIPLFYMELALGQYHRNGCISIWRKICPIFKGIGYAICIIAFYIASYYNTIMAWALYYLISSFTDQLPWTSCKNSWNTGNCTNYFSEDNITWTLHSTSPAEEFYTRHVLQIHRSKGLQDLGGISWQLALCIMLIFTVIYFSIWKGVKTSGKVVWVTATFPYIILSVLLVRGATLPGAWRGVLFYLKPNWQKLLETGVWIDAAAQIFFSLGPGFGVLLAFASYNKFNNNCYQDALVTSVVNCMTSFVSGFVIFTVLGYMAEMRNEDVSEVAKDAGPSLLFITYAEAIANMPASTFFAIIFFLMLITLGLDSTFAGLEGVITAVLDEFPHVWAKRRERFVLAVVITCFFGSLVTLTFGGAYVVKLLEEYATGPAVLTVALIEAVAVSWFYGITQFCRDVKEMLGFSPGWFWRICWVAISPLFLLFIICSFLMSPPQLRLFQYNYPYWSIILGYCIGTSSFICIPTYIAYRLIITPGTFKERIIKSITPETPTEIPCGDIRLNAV
Sequence of Sodium-dependent noradrenaline transporter (P23975 whole entry): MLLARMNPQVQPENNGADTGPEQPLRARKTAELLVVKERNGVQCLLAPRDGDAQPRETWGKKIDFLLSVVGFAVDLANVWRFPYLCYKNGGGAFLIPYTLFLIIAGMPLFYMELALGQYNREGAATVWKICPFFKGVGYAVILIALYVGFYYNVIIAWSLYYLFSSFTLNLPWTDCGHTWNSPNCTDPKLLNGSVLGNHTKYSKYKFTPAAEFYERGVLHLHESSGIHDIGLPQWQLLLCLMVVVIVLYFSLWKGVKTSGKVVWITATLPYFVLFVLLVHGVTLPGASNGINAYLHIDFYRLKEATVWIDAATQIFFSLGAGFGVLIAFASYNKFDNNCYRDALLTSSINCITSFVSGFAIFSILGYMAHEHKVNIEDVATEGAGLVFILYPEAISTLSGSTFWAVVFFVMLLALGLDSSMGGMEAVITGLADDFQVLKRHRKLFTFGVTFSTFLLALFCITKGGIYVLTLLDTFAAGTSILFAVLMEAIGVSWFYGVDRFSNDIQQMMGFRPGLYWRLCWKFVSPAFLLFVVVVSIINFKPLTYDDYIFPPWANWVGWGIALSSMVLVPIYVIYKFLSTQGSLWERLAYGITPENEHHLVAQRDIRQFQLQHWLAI
Sequence of Sodium-dependent dopamine transporter (Q01959 whole entry): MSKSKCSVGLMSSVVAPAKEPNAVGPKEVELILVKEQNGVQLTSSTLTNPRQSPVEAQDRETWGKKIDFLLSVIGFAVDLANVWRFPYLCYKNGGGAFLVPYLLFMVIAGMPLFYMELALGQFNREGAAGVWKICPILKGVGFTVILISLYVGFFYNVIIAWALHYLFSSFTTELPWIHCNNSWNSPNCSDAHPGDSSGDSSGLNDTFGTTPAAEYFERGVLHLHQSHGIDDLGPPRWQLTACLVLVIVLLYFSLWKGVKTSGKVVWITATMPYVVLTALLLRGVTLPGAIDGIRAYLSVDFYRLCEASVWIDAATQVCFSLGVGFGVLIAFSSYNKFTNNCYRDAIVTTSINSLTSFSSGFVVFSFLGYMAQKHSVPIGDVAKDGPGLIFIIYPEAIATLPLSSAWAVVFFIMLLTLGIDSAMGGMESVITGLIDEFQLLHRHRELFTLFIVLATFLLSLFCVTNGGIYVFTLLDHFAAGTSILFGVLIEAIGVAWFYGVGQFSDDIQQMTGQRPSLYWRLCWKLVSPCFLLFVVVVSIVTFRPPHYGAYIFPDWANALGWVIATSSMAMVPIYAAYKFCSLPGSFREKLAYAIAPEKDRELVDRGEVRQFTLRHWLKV

| efflux ratio at 2 h, 10 µM (MDR1) | pKa [1] | IC50 [2] | IC50 [3] | IC50 [4] | Ratio IC50 (Homo sapiens [5]) | Ratio IC50 (Homo sapiens [6]) | Cmax [7] | MRT [8] | AUC [9] | bioavailability [10] | Compound | Occ (Rattus norvegicus [11]) | Activity (Rattus norvegicus [12]) |
| --- | --- | --- | --- | --- | --- | --- | --- | --- | --- | --- | --- | --- | --- |
| > 0.8 | 5.89 | 1.9 nM | 120 nM | > 1000 nM | – | – | – | – | – | – | Cl.O=c1[nH]c(-c2ccn(C[C@@H]3CNCCO[C@H]3c3ccc(Cl)c(F)c3)c(=O)c2)no1 | – | – |
| – | – | 0.079 nM | 130 nM | > 1000 nM | 1700 | > 13000 | 47.9 ng/mL | 2.1 h | 107 ng·h/mL | 20% | Cl.O=c1ccccn1C[C@@H]1CNCCO[C@H]1c1ccc(Cl)c(F)c1 | 83.4% | – |
| 2.1 | 2.58 | 1.1 nM | > 1000 nM | > 1000 nM | – | – | 93.8 ng/mL | 1.9 h | 197 ng·h/mL | 41% | Cl.O=C(O)c1cccn(C[C@@H]2CNCCO[C@H]2c2ccc(Cl)c(F)c2)c1=O | 14% | Dose-dependent effect |
| 1.9 | 5.45 | 1 nM | 380 nM | > 1000 nM | – | – | 17.2 ng/mL | 1.5 h | 38.9 ng·h/mL | 12% | Cl.O=c1[nH]c(-c2cccn(C[C@@H]3CNCCO[C@H]3c3ccc(Cl)c(F)c3)c2=O)no1 | 28.4% | – |
| – | – | 0.065 nM | 79 nM | 240 nM | 1200 | 3600 | – | – | – | – | O=c1cccnn1C[C@@H]1CNCCO[C@H]1c1ccc(Cl)c(F)c1 | – | – |
| 6.8 | 9.68 | 0.64 nM | 67 nM | > 1000 nM | – | – | – | – | – | – | Cc1nnc(-c2cccn(C[C@@H]3CNCCO[C@H]3c3ccc(Cl)c(F)c3)c2=O)[nH]1.Cl | – | – |
| 1.7 | 3.88 | 1.4 nM | 730 nM | > 1000 nM | – | – | 16.2 ng/mL | 2 h | 44 ng·h/mL | 8% | Cl.O=c1c(-c2nnn[nH]2)cccn1C[C@@H]1CNCCO[C@H]1c1ccc(Cl)c(F)c1 | 12% | – |
| 7.8 | – | 0.21 nM | 54 nM | > 1000 nM | – | – | – | – | – | – | COC(=O)c1cccn(C[C@@H]2CNCCO[C@H]2c2ccc(Cl)c(F)c2)c1=O.Cl | – | – |

More lines, now with the values behind:

| Compound | efflux ratio at 2 h, 10 µM (MDR1) | pKa [1] | IC50 [2] | IC50 [3] | IC50 [4] | Ratio IC50 (Homo sapiens [5]) | Ratio IC50 (Homo sapiens [6]) | Cmax [7] | MRT [8] | AUC [9] | bioavailability [10] | Occ (Rattus norvegicus [11]) | Activity (Rattus norvegicus [12]) |
| --- | --- | --- | --- | --- | --- | --- | --- | --- | --- | --- | --- | --- | --- |
| Cl.O=c1[nH]c(-c2cccc(=O)n2C[C@@H]2CNCCO[C@H]2c2ccc(Cl)c(F)c2)no1 | 0.6 | 6.35 | 100 nM | > 1000 nM | > 1000 nM | – | – | – | – | – | – | – | – |
| O=C1CCCCN1C[C@@H]1CNCCO[C@H]1c1ccc(Cl)c(F)c1 | – | – | 0.1 nM | 27 nM | 130 nM | 270 | 1300 | – | – | – | – | – | – |
| Cl.O=c1[nH]c(-c2ccc(=O)n(C[C@@H]3CNCCO[C@H]3c3ccc(Cl)c(F)c3)c2)no1 | 1.6 | 5.72 | 25 nM | > 1000 nM | > 1000 nM | – | – | – | – | – | – | – | – |
| CC(=O)NC[C@@H]1CNCCO[C@H]1c1ccc(Cl)c(F)c1 | – | – | – | > 1000 nM | > 1000 nM | > 440 | > 440 | – | – | – | – | – | – |
| O=C1CCCN1C[C@@H]1CNCCO[C@H]1c1ccc(Cl)c(F)c1 | – | – | 0.13 nM | 85 nM | 400 nM | 650 | 3100 | – | – | – | – | – | – |
| O=C1NCCCN1C[C@@H]1CNCCO[C@H]1c1ccc(Cl)c(F)c1 | – | – | 0.08 nM | 12 nM | 66 nM | 150 | 820 | – | – | – | – | – | – |
